Values quoted from earlier work as cited in patent US20220142904A1, “A METHOD OF COLORING KERATINOUS MATERIAL COMPRISING THE USE OF AN ORGANOSILICON COMPOUND, A COLORING COMPOUND, A SEALING REAGENT, AND A MIXTURE OF SILICONES” (Henkel AG & Co. KGaA, priority 2019, published 2022).

Details: for solubility in water: 25° C.

Compound | solubility in water | solubility in water (in words) (water at 25° C.)
O=S(=O)([O-])c1ccc(N=Nc2c(O)ccc3ccccc23)cc1.[Na+] [Acid Orange 7, sodium salt of 4-[(2-hydroxy-1-naphthyl)azo]benzene sulphonate] | more than 7 g/L | 
Nc1cc(S(=O)(=O)[O-])cc2cc(S(=O)(=O)[O-])c(N=Nc3ccccc3)c(O)c12.[Na+].[Na+] [Acid Red 33, disodium salt of 5-amino-4-hydroxy-3-(phenylazo)-naphthalene-2,7-disulphonate] | 2.5 mg/mL | 
O=C([O-])c1c(Cl)c(Cl)c(Cl)c(Cl)c1-c1c2c(Br)cc(=O)c(Br)c-2oc2c(Br)c(O)cc(Br)c12.O=C([O-])c1c(Cl)c(Cl)c(Cl)c(Cl)c1-c1c2c(Br)cc(=O)c(Br)c-2oc2c(Br)c(O)cc(Br)c12.[Na+].[Na+] [Acid Red 92, disodium salt of 3,4,5,6-tetrachloro-2-(1,4,5,8-tetrabromo-6-hydroxy-3-oxoxanthen-9-yl)benzoic acid] | greater than 10 g/L | 
O=C([O-])C1=NN(c2ccc(S(=O)(=O)[O-])cc2)C(=O)C1N=Nc1ccc(S(=O)(=O)[O-])cc1.[Na+].[Na+].[Na+] (centres unmarked) [Acid Yellow 23, trisodium salt of 4,5-dihydro-5-oxo-1-(4-sulfophenyl)-4-((4-sulfophenyl)azo)-1H-pyrazole-3-carboxylic acid] |  | highly soluble
sodium salts of mono- and disulfonic acids of 2-(2-quinolyl)-1H-indene-1,3(2H)-dione [Acid Yellow 3] | 20 mg/mL | 
